In ChEMBL document CHEMBL4665643 (Bioorg Med Chem Lett, 2019):

Experiments:
[1] = target: T1, Inhibitor of nuclear factor kappa-B kinase subunit epsilon (Homo sapiens) (UniProt Q14164); assay: Inhibition of recombinant human GST-tagged full length IKKepsilon expressed in baculovirus expression system using Ser/Thr 11 as substrate at 0.1 uM incubated for 60 mins by Z'-lyte assay relative to control
T1 sequence (whole entry): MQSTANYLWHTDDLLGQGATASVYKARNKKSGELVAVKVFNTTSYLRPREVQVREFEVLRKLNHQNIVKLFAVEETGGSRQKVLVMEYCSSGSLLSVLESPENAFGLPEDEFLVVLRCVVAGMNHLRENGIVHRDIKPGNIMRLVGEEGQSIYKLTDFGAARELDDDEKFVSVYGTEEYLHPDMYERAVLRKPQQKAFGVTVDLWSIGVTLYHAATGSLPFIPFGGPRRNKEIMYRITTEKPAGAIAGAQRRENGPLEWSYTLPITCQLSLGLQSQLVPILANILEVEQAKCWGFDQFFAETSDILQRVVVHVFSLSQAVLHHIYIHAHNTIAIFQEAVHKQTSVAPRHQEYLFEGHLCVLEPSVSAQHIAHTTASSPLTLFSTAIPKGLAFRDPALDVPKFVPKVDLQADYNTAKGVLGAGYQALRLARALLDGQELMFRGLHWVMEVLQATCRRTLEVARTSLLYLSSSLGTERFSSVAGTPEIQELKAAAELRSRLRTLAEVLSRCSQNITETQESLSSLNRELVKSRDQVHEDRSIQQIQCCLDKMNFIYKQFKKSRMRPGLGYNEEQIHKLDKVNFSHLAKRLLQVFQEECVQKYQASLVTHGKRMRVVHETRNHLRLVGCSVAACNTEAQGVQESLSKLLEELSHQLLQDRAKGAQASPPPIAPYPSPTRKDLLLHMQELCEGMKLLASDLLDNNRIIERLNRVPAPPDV

[2] = target: T2, Mitogen-activated protein kinase kinase kinase 5 (Homo sapiens) (UniProt Q99683); assay: Inhibition of tracer 236 binding to recombinant human GST-tagged full length ASK1 expressed in baculovirus expression system at 0.1 uM incubated for 60 mins by Lanthascreen assay relative to control
T2 sequence (whole entry): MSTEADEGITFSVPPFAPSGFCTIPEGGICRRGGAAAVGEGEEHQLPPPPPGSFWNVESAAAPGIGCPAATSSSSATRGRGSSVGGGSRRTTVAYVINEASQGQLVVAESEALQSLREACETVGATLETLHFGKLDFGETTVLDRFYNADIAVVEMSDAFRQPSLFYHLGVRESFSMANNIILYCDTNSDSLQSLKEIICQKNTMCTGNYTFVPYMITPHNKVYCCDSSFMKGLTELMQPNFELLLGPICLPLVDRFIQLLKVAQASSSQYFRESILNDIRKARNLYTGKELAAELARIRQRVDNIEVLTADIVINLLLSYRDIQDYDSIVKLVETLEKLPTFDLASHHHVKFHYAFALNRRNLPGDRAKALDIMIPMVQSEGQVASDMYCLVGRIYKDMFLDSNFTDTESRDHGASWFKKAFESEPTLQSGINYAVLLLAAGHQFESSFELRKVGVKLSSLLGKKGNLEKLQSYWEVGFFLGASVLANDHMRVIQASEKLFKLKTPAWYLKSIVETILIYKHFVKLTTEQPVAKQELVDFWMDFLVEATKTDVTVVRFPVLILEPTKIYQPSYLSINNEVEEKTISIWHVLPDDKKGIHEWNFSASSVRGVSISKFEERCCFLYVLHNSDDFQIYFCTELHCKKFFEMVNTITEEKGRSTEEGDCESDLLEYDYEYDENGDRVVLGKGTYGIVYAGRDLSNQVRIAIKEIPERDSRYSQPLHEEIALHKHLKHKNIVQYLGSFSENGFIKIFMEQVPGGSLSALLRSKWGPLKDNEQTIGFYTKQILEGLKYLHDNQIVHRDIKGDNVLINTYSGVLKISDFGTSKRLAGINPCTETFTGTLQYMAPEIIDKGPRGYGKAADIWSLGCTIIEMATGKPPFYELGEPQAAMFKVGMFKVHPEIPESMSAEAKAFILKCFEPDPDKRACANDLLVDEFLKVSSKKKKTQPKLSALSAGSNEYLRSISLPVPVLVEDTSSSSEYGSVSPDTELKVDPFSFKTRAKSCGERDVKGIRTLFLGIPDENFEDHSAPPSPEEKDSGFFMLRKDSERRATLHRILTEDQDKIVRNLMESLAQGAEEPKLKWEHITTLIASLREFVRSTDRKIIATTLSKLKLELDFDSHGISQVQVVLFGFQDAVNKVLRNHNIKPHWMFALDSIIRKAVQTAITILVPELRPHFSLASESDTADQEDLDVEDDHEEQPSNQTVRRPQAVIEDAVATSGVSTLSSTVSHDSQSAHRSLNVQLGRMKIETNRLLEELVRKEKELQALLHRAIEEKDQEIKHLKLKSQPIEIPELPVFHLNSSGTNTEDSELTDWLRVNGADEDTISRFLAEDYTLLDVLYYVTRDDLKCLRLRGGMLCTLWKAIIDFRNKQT

| SMILES | inhibition [1] [%] | inhibition [2] [%] |
| --- | --- | --- |
| Cn1cc(NC(=O)c2cnn3cccnc23)c(-c2cc(Cl)ccc2OC(F)F)n1 | 5 | 2 |
| O=C(Nc1c[nH]nc1-c1cc(Cl)ccc1OC(F)F)c1cnn2cccnc12 | 8 | 4 |
| O=C(Nc1c[nH]nc1-c1cc2ccccc2cc1OC(F)F)c1cnn2cccnc12 | 3 | -2 |
